Results: paper PMC11198769, “Enhancement of transcription efficiency by TAR-Tat system increases the functional expression of human olfactory receptors” (PLOS ONE, 2024)

Experiments:
Experiment in all cases: hOR assay (GloSensor cAMP luciferase), dose-response
Assay type in all cases: cell-based
OR56B1 = target: T1, OR56B1 (Homo sapiens, UniProt Q8NGI3); settings: OR56B1, with or without the TAR-Tat system
T1 construct: Lucy tag (N); expressed in transfected cells; host or cells: Flp-In T-REx-293 cells stably expressing RTP1S, Gαolf and Ric8-b
T1 sequence (Q8NGI3 1-324): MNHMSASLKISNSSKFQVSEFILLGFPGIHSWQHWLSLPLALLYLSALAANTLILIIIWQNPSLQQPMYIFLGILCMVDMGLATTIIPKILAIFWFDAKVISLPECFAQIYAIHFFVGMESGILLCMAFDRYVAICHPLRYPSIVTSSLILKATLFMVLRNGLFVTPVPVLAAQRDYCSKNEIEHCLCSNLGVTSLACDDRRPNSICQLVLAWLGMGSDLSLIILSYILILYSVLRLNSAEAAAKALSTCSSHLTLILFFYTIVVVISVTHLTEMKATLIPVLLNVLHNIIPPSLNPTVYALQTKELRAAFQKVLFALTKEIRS
Description: (§1) Flp-In T-REx-293 cells stably expressing accessory proteins (RTP1S, Gαolf, and Ric8-b) were established using the Flp-In T-REx system. Accessory proteins-expressing cells were maintained in high-glucose Dulbecco’s modified Eagle medium (Sigma-Aldrich) containing 10% fetal bovine serum (Biowest) and 1% antibiotic–antimycotic (Nacalai tesque) at 37°C with 5% CO2.
(§2) The GloSensor™ Technology (Promega) was used for the luciferase assay of the hOR response. As the negative control, cells that were transfected by the pBApo-CMV neo vector and pHEK293 Ultra Expression Vector I were used as mock cells. hOR/pHEK and hOR/pBApo (50 ng/well) were transfected into the accessory proteins-expressing cell line (40000 cells/well) using Lipofectamine 2000 (Thermo Fisher Scientific) (400 nL/well) along with pGlosensor™-22F cAMP biosensor plasmid (Promega) (50 ng/well) in a 96-well plate. At 28 h posttransfection, the cells were washed with an assay buffer (140 mM NaCl, 10 mM HEPES, 5 mM KCl, 1 mM CaCl2・2H2O, 10 mM D-glucose, pH 7.5) and replaced with the assay buffer (50 μL/well) containing 2% GloSensor cAMP substrate and preincubated for 1 h at 25°C. Then, the assay buffer was added (130 μL/well). After 10 min of equilibration, the luminescence was measured (L0). Odorants diluted in 10% DMSO/assay buffer were treated (20 μL/well). After 9 min, the luminescence was measured (L9min). First, all the L9min values were subtracted by the L0 value (ΔL) and divided by the L0 value (ΔL/L0). The concentration range of the odorants was different for each odorant, but the minimum was 0.01 μM and the maximum was 3 mM. For all hORs, luciferase assays with hOR/pBApo and hOR/pHEK were conducted in the same 96-well plate each time, and luminescence was normalized to a maximum value of 100. Dose–response curve images were graphed using the Graph Pad Prism 9 software (Graph Pad Software).

OR2M3 = target: T2, OR2M3 (Homo sapiens, UniProt Q8NG83)
T2 construct: Lucy tag (N); expressed in transfected cells; host or cells: Flp-In T-REx-293 cells stably expressing RTP1S, Gαolf and Ric8-b
T2 sequence (Q8NG83 1-312): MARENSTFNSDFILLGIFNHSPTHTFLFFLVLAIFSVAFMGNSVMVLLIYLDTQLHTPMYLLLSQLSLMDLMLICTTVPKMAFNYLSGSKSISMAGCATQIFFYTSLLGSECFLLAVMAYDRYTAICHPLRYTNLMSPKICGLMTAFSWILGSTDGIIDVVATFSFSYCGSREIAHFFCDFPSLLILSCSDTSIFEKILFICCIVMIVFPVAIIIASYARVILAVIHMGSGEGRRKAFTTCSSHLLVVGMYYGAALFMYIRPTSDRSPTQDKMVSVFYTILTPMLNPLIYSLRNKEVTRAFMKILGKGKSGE
Description: as §1, §2

OR5K1 = target: T3, OR5K1 (Homo sapiens, UniProt Q8NHB7)
T3 construct: Lucy tag (N); FLAG (N); Rho tag (N); expressed in transfected cells; host or cells: Flp-In T-REx-293 cells stably expressing RTP1S, Gαolf and Ric8-b
T3 sequence (Q8NHB7 1-308): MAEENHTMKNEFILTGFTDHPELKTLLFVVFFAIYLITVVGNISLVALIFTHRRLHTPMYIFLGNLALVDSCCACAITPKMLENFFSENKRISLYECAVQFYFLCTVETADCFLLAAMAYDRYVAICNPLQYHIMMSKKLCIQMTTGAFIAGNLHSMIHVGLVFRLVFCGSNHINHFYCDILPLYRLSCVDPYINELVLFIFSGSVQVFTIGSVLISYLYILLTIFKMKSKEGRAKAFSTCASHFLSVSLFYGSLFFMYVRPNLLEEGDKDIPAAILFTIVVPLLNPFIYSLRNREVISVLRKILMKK
Description: as §1, §2

OR8B4 = target: T4, OR8B4 (Homo sapiens, UniProt Q96RC9); settings: OR8B4, with or without the TAR-Tat system
T4 construct: Lucy tag (N); FLAG (N); Rho tag (N); expressed in transfected cells; host or cells: Flp-In T-REx-293 cells stably expressing RTP1S, Gαolf and Ric8-b
T4 sequence (Q96RC9 1-309): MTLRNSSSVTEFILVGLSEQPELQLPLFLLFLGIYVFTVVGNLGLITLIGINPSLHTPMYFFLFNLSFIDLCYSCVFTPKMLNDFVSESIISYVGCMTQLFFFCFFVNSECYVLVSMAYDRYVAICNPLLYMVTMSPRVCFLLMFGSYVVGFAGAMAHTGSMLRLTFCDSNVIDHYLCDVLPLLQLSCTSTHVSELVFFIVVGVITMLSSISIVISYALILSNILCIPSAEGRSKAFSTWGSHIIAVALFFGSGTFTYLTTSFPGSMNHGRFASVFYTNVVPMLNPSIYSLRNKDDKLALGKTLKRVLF
Description: as §1, §2

OR10A2 = target: T5, OR10A2 (Homo sapiens, UniProt Q9H208); settings: OR10A2, with or without the TAR-Tat system
T5 construct: Lucy tag (N); expressed in transfected cells; host or cells: Flp-In T-REx-293 cells stably expressing RTP1S, Gαolf and Ric8-b
T5 sequence (Q9H208 1-303): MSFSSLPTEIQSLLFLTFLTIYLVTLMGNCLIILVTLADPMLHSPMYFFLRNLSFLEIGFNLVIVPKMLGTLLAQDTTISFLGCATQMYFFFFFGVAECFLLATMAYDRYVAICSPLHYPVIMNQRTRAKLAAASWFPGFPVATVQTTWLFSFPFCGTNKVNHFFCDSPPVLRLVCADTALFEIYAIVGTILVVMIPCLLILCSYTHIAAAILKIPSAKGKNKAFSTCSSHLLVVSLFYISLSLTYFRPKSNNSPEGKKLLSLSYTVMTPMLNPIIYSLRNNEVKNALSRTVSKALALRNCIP
Description: as §1, §2

concentration-dependent response to n-hexanal (OR56B1): no concentration-dependent response | mode of action on OR2M3 (OR2M3; OR2M3/pHEK plasmid): inverse agonist | EC50 (OR5K1; OR5K1/pHEK (with TAR-Tat system), read-out: EC50 of n-hexanal concentration-response relationship): 11 µM | concentration-dependent response to n-hexanal (OR8B4): no concentration-dependent response | concentration-dependent response to n-hexanal (OR10A2): no concentration-dependent response
Structure (SMILES): CCCCCC=O [n-hexanal]
suppression of the active response of OR2M3 to agonist (OR2M3; coadministered with 500 μM 3-mercapto-2-methyl-1-pentanol, OR2M3/pHEK plasmid): suppressed in an n-hexanal concentration-dependent manner | inhibitory effect on the constitutive activity of OR2M3 (luminescence values) (OR2M3; with and without the TAR-Tat system): decreased in an n-hexanal concentration-dependent manner only in the case with the TAR-Tat system | concentration-dependent response to n-hexanal (OR5K1; OR5K1, with and without the TAR-Tat system): concentration-dependent responses only with the TAR-Tat system
